Data on 15 molecules can be found in patent publication US20240409585A1, “MACROCYCLIC IMMUNOMODULATORS” (priority 2021, published 2024).

Numbered stars: 1 amine (or outer) side, 2 acyl side, 3 side chain; on linkers, the order of the positions; unused ones are H or OH. Bridge positions count the residues as written; N and C are the ends. Square brackets hold non-standard residues; d marks the D form. Peptide text beside a SMILES is read from it. * marks the point of attachment. X22 = NC(=O)c1cccc(-c2ccc(C[C@H](N[*:1])C(=O)[*:2])cc2)c1; Phe(4-COOH) = N[C@@H](Cc1ccc(C(=O)O)cc1)C(=O)O; Bip = N[C@@H](Cc1ccc(-c2ccccc2)cc1)C(=O)O; Phe(3-CN) = N#Cc1cccc(C[C@H](N)C(=O)O)c1; Phe(3-Me) = Cc1cccc(C[C@H](N)C(=O)O)c1; Val(3-OH) = CC(C)(O)[C@H](N)C(=O)O; hArg = N=C(N)NCCCC[C@H](N)C(=O)O; 4Pal = N[C@@H](Cc1ccncc1)C(=O)O; Cha = N[C@@H](CC1CCCCC1)C(=O)O; Cit = NC(=O)NCCC[C@H](N)C(=O)O; Carboxymethyl = O=C(O)C*; NMeA = CN[C@@H](C)C(=O)O; Nle = CCCC[C@H](N)C(=O)O; Orn = NCCC[C@H](N)C(=O)O; Dab = NCC[C@H](N)C(=O)O; Dap = NC[C@H](N)C(=O)O

Usually IC50 stands for the concentration needed to halve the response being measured.

For this assay, the target named is T1, PE-labeled human PD-L1-Ig binding to Jurkat cell line over-expressing human PD-1 (Jurkat-PD-1) (Homo sapiens, UniProt Q15116).
T1 construct: expressed in transfected cells; host or cells: Jurkat
T1 sequence (Q15116 25-288): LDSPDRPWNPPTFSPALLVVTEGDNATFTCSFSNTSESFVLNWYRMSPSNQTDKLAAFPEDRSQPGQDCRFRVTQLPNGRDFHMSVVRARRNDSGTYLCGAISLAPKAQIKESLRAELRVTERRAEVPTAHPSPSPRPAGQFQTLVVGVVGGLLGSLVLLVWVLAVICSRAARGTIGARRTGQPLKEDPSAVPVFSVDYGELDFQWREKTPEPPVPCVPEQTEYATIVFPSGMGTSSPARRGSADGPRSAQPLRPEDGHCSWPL
Description: Jurkat-PD-1 Cell Binding High-Content Screening Assay (CBA): Method 1. As to conditions: Jurkat-hPD-1 cells, PE-labeled PD-L1-Ig 20 nM final; read-out: Jurkat HPDL1 PD1 IC50 (uM) (Method 1).
As for `CCCC[C@@H]1NC(=O)[C@H](CCN)NC(=O)[C@@H](CC(C)C)NC(=O)[C@H](C)N(C)C(=O)[C@H](CCCN)NC(=O)[C@H](Cc2ccc(-c3ccccc3)cc2)NC(=O)[C@H](C(C)C)NC(=O)[C@H](Cc2c[nH]c3ccccc23)NC(=O)[C@H](CC(=O)O)NC(=O)[C@H](Cc2ccc(O)cc2)NC(=O)[C@H](CC(N)=O)NC(=O)CSC[C@@H](C(=O)N[C@@H](C)C(N)=O)NC(=O)[C@H]([C@@H](C)O)NC(=O)[C@H](C(C)C)NC1=O` [Compound 1267] ({CH2CO}-NYDWV[Bip][Orn][NMeA][dL][Dab][Nle]VTCA-NH2; thioether N-14), the IC50 was 0.26 µM.
Turning to `CC(C)C[C@@H]1NC(=O)[C@H](CCN)NC(=O)[C@@H](CC(C)C)NC(=O)[C@H](C)N(C)C(=O)[C@H](CCCNC(=N)N)NC(=O)[C@H](Cc2ccc(-c3ccccc3)cc2)NC(=O)[C@H](C(C)C)NC(=O)[C@H](Cc2c[nH]c3ccccc23)NC(=O)[C@H](CC(=O)O)NC(=O)[C@H](Cc2ccc(OCC(=O)O)cc2)NC(=O)[C@H](Cc2ccncc2)NC(=O)CSC[C@@H](C(=O)N[C@@H](C)C(N)=O)NC(=O)[C@H]([C@@H](C)O)NC(=O)[C@H](C(C)C)NC1=O` [Compound 1443] ({CH2CO}-[4Pal]Y(Carboxymethyl)DWV[Bip]R[NMeA][dL][Dab]LVTCA-NH2; thioether N-14), the IC50 is 0.01 µM.
Regarding `CC(C)C[C@@H]1NC(=O)[C@H](CCCN)NC(=O)[C@@H](CC(C)C)NC(=O)[C@H](C)N(C)C(=O)[C@H](CCCNC(=N)N)NC(=O)[C@H](Cc2ccc(-c3ccccc3)cc2)NC(=O)[C@H](C(C)C)NC(=O)[C@H](Cc2c[nH]c3ccccc23)NC(=O)[C@H](CC(=O)O)NC(=O)[C@H](Cc2ccc(O)cc2)NC(=O)[C@H](Cc2ccccc2)NC(=O)CSC[C@@H](C(=O)N[C@@H](CO)C(N)=O)NC(=O)[C@H]([C@@H](C)O)NC(=O)[C@H](C(C)C)NC1=O` [Compound 1176] ({CH2CO}-FYDWV[Bip]R[NMeA][dL][Orn]LVTCS-NH2; thioether N-14), the IC50 came to 0.07 µM.
For `CC(C)C[C@H]1NC(=O)[C@H](C)N(C)C(=O)[C@H](C(C)C)NC(=O)[C@H](Cc2ccc(-c3ccccc3)cc2)NC(=O)[C@H](C(C)C)NC(=O)[C@H](Cc2c[nH]c3ccccc23)NC(=O)[C@H](CC(=O)O)NC(=O)[C@H](Cc2ccncc2)NC(=O)[C@H](Cc2ccc(OCC(=O)O)cc2)NC(=O)CSC[C@@H](C(N)=O)NC(=O)[C@H](CO)NC(=O)[C@H](C(C)C)NC(=O)[C@H](CC2CCCCC2)NC(=O)[C@H](CCCCN)NC1=O` [Compound 2245] ({CH2CO}-Y(Carboxymethyl)[4Pal]DWV[Bip]V[NMeA][dL]K[Cha]VSC-NH2; thioether N-14), the half-maximal inhibitory concentration (IC50) amounted to 0.01 µM.
To `CC(C)C[C@@H]1NC(=O)[C@H](CCN)NC(=O)[C@@H](CC(C)C)NC(=O)[C@H](C)N(C)C(=O)[C@H](CCCNC(=N)N)NC(=O)[C@H](Cc2ccc(-c3ccccc3)cc2)NC(=O)[C@H](C(C)C)NC(=O)[C@H](Cc2cccc(C#N)c2)NC(=O)[C@H](CC(=O)O)NC(=O)[C@H](Cc2ccc(C(=O)O)cc2)NC(=O)[C@H](CN)NC(=O)CSC[C@@H](C(=O)N[C@@H](C)C(N)=O)NC(=O)[C@H]([C@@H](C)O)NC(=O)[C@H](C(C)C)NC1=O` [Compound 1461] ({CH2CO}-[Dap][Phe(4-COOH)]D[Phe(3-CN)]V[Bip]R[NMeA][dL][Dab]LVTCA-NH2; thioether N-14) belongs 0.23 µM; to `Cc1cccc(C[C@@H]2NC(=O)[C@H](CC(=O)O)NC(=O)[C@H](Cc3ccc(C(=O)O)cc3)NC(=O)[C@H](Cc3ccncc3)NC(=O)CSC[C@@H](C(=O)N[C@@H](CCN)C(N)=O)NC(=O)[C@H](CO)NC(=O)[C@H](C(C)(C)O)NC(=O)[C@H](CC3CCCCC3)NC(=O)[C@H](CCN)NC(=O)[C@@H](CC(C)C)NC(=O)[C@H](C)N(C)C(=O)[C@H](Cc3ccc(C(=O)O)cc3)NC(=O)[C@H](Cc3ccc(-c4ccccc4)cc3)NC(=O)[C@H](Cc3ccc(OCC(=O)O)cc3)NC2=O)c1` [Compound 2184] ({CH2CO}-[4Pal][Phe(4-COOH)]D[Phe(3-Me)]Y(Carboxymethyl)[Bip][Phe(4-COOH)][NMeA][dL][Dab][Cha][Val(3-OH)]SC[Dab]-NH2; thioether N-14), 0.04 µM; to `CC(C)C[C@@H]1NC(=O)[C@H](CCCNC(=N)N)NC(=O)[C@@H](Cc2ccccc2)NC(=O)[C@H](C)N(C)C(=O)[C@H](CCCNC(=N)N)NC(=O)[C@H](Cc2ccc(-c3ccccc3)cc2)NC(=O)[C@H](C(C)C)NC(=O)[C@H](Cc2c[nH]c3ccccc23)NC(=O)[C@H](CC(=O)O)NC(=O)[C@H](Cc2ccc(O)cc2)NC(=O)[C@H](Cc2cnc[nH]2)NC(=O)CSC[C@@H](C(=O)NCC(N)=O)NC(=O)[C@H](CO)NC(=O)[C@H](C(C)C)NC1=O` [Compound 1031] ({CH2CO}-HYDWV[Bip]R[NMeA][dF]RLVSCG-NH2; thioether N-14), 0.09 µM.
With `CC(C)C[C@@H]1NC(=O)[C@H](CCN)NC(=O)[C@@H](CC(C)C)NC(=O)[C@H](C)N(C)C(=O)[C@H](CCCNC(N)=O)NC(=O)[C@H](Cc2ccc(-c3ccccc3)cc2)NC(=O)[C@H](C(C)C)NC(=O)[C@H](Cc2c[nH]c3ccccc23)NC(=O)[C@H](CC(=O)O)NC(=O)[C@H](Cc2ccc(O)cc2)NC(=O)[C@H](CCCCNC(=N)N)NC(=O)CSC[C@@H](C(=O)N[C@@H](C)C(N)=O)NC(=O)[C@H]([C@@H](C)O)NC(=O)[C@H](C(C)C)NC1=O` [Compound 1349] ({CH2CO}-[hArg]YDWV[Bip][Cit][NMeA][dL][Dab]LVTCA-NH2; thioether N-14) the figure was 0.06 µM.
With `CC[C@H](C)[C@@H]1NC(=O)[C@H](Cc2ccc(-c3ccccc3)cc2)NC(=O)[C@H](C(C)(C)O)NC(=O)[C@H](Cc2cccc(C)c2)NC(=O)[C@H](CC(=O)O)NC(=O)[C@H](Cc2ccc(O)cc2)NC(=O)[C@H](CC(N)=O)NC(=O)CSC[C@@H](C(=O)N[C@@H](CCN)C(N)=O)NC(=O)[C@H](CCC(=O)O)NC(=O)[C@H](C(C)(C)O)NC(=O)[C@H](CC2CCCCC2)NC(=O)[C@H](CCN)NC(=O)[C@@H](CC(C)C)NC(=O)[C@H](C)N(C)C1=O` [Compound 1699] ({CH2CO}-NYD[Phe(3-Me)][Val(3-OH)][Bip]I[NMeA][dL][Dab][Cha][Val(3-OH)]EC[Dab]-NH2; thioether N-14) the figure was 0.04 µM; with `CC(C)C[C@@H]1NC(=O)[C@H](CCN)NC(=O)[C@@H](CC(C)C)NC(=O)[C@H](C)N(C)C(=O)[C@H](CCCNC(=N)N)NC(=O)[C@H](Cc2ccc(-c3cccc(C(N)=O)c3)cc2)NC(=O)[C@H](C(C)C)NC(=O)[C@H](Cc2c[nH]c3ccccc23)NC(=O)[C@H](CC(=O)O)NC(=O)[C@H](Cc2ccc(O)cc2)NC(=O)[C@H](CC(N)=O)NC(=O)CSC[C@@H](C(=O)N[C@@H](C)C(N)=O)NC(=O)[C@H]([C@@H](C)O)NC(=O)[C@H](C(C)C)NC1=O` [Compound 1225] ({CH2CO}-NYDWV[X22]R[NMeA][dL][Dab]LVTCA-NH2; thioether N-14), 0.29 µM; with `CC(C)C[C@@H]1NC(=O)[C@H](Cc2c[nH]c3ccccc23)NC(=O)[C@H](CC(=O)O)NC(=O)[C@H](Cc2ccc(OCC(=O)O)cc2)NC(=O)[C@H](CC(N)=O)NC(=O)CSC[C@@H](C(=O)N[C@@H](C)C(N)=O)NC(=O)[C@H](CO)NC(=O)[C@H](C(C)C)NC(=O)[C@H](CC(C)C)NC(=O)[C@H](CC(N)=O)NC(=O)[C@@H](C)NC(=O)[C@H](C)N(C)C(=O)[C@H](C(C)C)NC(=O)[C@H](Cc2ccc(-c3ccccc3)cc2)NC1=O` [Compound 1769] ({CH2CO}-NY(Carboxymethyl)DWL[Bip]V[NMeA][dA]NLVSCA-NH2; thioether N-14), 0.04 µM.
Regarding `CC[C@H](C)[C@@H]1NC(=O)[C@H](Cc2ccc(-c3ccccc3)cc2)NC(=O)[C@H](C(C)(C)O)NC(=O)[C@H](Cc2cccc(C)c2)NC(=O)[C@H](CC(=O)O)NC(=O)[C@H](Cc2ccc(O)cc2)NC(=O)[C@H](CC(N)=O)NC(=O)CSC[C@@H](C(=O)N[C@H](C)C(N)=O)NC(=O)[C@H](CCC(=O)O)NC(=O)[C@H](C(C)C)NC(=O)[C@H](CC2CCCCC2)NC(=O)[C@H](CCN)NC(=O)[C@@H](CC(C)C)NC(=O)[C@H](C)N(C)C1=O` [Compound 1698] ({CH2CO}-NYD[Phe(3-Me)][Val(3-OH)][Bip]I[NMeA][dL][Dab][Cha]VEC[dA]-NH2; thioether N-14), the half-maximal inhibitory concentration (IC50) came to 0.1 µM.
For the molecule `CC(C)C[C@@H]1NC(=O)[C@H](CCCN)NC(=O)[C@@H](CC(C)C)NC(=O)[C@H](C)N(C)C(=O)[C@H](CCCN)NC(=O)[C@H](Cc2ccc(-c3ccccc3)cc2)NC(=O)[C@H](C(C)C)NC(=O)[C@H](Cc2c[nH]c3ccccc23)NC(=O)[C@H](CC(=O)O)NC(=O)[C@H](Cc2ccc(O)cc2)NC(=O)[C@H](CC(N)=O)NC(=O)CSC[C@@H](C(=O)N[C@@H](C)C(N)=O)NC(=O)[C@H](CO)NC(=O)[C@H](C(C)C)NC1=O` [Compound 1251] ({CH2CO}-NYDWV[Bip][Orn][NMeA][dL][Orn]LVSCA-NH2; thioether N-14), the IC50 was 0.04 µM.
With `CC(C)C[C@@H]1NC(=O)[C@H](Cc2c[nH]c3ccccc23)NC(=O)[C@H](CC(=O)O)NC(=O)[C@H](Cc2ccc(OCC(=O)O)cc2)NC(=O)[C@H](Cc2ccccc2)NC(=O)CSC[C@@H](C(=O)N[C@@H](C)C(N)=O)NC(=O)[C@H](CO)NC(=O)[C@H](C(C)C)NC(=O)[C@H](CC(C)C)NC(=O)[C@H](CC(N)=O)NC(=O)[C@@H](C)NC(=O)[C@H](C)N(C)C(=O)[C@H](C(C)C)NC(=O)[C@H](Cc2ccc(-c3ccccc3)cc2)NC1=O` [Compound 1737] ({CH2CO}-FY(Carboxymethyl)DWL[Bip]V[NMeA][dA]NLVSCA-NH2; thioether N-14) the figure was 0.02 µM.
Take `CCNC(=O)[C@H](CCN)NC(=O)[C@@H]1CSCC(=O)N[C@@H](CCN)C(=O)N[C@@H](Cc2ccc(C(=O)O)cc2)C(=O)N[C@@H](CC(=O)O)C(=O)N[C@@H](Cc2c[nH]c3ccccc23)C(=O)N[C@@H](CC(C)C)C(=O)N[C@@H](Cc2ccc(-c3ccccc3)cc2)C(=O)N[C@@H]([C@@H](C)CC)C(=O)N(C)[C@@H](C)C(=O)N[C@H](CC(C)C)C(=O)N[C@@H](CCN)C(=O)N[C@@H](CC2CCCCC2)C(=O)N[C@@H](C(C)(C)O)C(=O)N[C@@H](CO)C(=O)N1` [Compound 1850] ({CH2CO}-[Dab][Phe(4-COOH)]DWL[Bip]I[NMeA][dL][Dab][Cha][Val(3-OH)]SC[Dab]-NHEt; thioether N-14): the concentration for half-maximal inhibition (IC50) amounted to 0.01 µM.
